Results from ChEMBL document CHEMBL4680341, “Substituted diaryl ether compounds as retinoic acid-related orphan Receptor-γt (RORγt) agonists” (Bioorg Med Chem Lett, 2021).

Tests used:
in vitro [1] = conditions: mouse, liver microsomes
Description: Stability in mouse liver microsomes assessed as parent compound remaining at 3 uM after 10 mins by mass spectrometric method

in vitro [2] = conditions: rat, liver microsomes
Description: Stability in rat liver microsomes assessed as parent compound remaining at 3 uM after 10 mins by mass spectrometric method

in vitro [3] = conditions: human, liver microsomes
Description: Stability in human liver microsomes assessed as parent compound remaining at 3 uM after 10 mins by mass spectrometric method

## CC(C)c1cc(F)cc(Oc2c(Cl)cc(NC(=O)Cc3cccnc3)cc2Cl)c1
In vitro [1]
  remaining at 10 min, 3 µM: 81%
In vitro [2]
  remaining at 10 min, 3 µM: 78%
In vitro [3]
  remaining at 10 min, 3 µM: 79%
